Reference: patent US20210332024A1, “MODULATORS OF PIN1 ACTIVITY AND USES THEREOF” (Yeda Research and Development Co. Ltd., priority 2019, published 2021)

Legend:
MDA-MB-231 cells = assay: Cell viability assay (CellTiter-Glo); type: cell-based; details: Homo sapiens; cell viability assay with MDA-MB-231 cells
Description: MDA-MB-231 cells grew in DMEM medium supplemented with 10% FCS (fetal calf serum), 1% PS (penicillin-streptomycin) and 1% L-glutamine (all from Biological Industries). Exclusion of mycoplasma contamination was monitored and conducted by test with MycoAlert™ kit (Lonza). Cells were trypsinized and counted, and 1000 cells/well were plated in 50 μl of growth medium into 384-well white TC plates (Greiner) using Multidrop™ 384 (Thermo Scientific) Washer Dispenser II. The number of viable cells was monitored using CellTiter-Glo® Luminescent kit (Promega) in accordance with the manufacturer's protocol. Luminescence was measured using luminescence module of PHERAstar™ FS plate reader (BMG Labtech). Data analysis was performed using GeneData 12 analytic software. Assay ready plate preparation: Compounds transferred into black microplates (Greiner 784900) using Labcyte Echo® acoustic dispensing technology. Assay ready plates were then sealed with heat seals. If not used immediately, plates were frozen at −20° C. and held in polypropylene boxes with silica-gel desiccant.
Exemplary Pin1-binding compounds were also tested for non-selective cytotoxicity in a viability assay against IMR90 lung fibroblasts.

Pin1 in IMR32 cells = molecular target: T1, Pin1 in IMR32 cells (Homo sapiens, UniProt Q13526); assay: Live cell competition assay with Pin1-3-DTB pull-down, IMR32 cells; type: cell-based; details: IMR32 cells
T1 construct: endogenous in cells; host or cells: IMR32
T1 sequence (Q13526 whole entry): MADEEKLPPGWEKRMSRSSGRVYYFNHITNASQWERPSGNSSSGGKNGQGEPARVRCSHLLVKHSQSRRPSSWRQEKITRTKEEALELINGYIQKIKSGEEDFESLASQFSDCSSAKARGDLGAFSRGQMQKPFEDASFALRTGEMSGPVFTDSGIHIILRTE
Description: The indicated cells were treated with increasing concentrations of either DMSO, Pin1-3, or Pin1-3-AcA for 5 hours. Cells were harvested by scraping and washed twice with PBS before lysis with 50 mM HEPES (pH 7.4), 1 mM EDTA, 10% glycerol, 1 mM TCEP, 150 mM NaCl, 1 mM EDTA, 0.5% NP-40, and protease inhibitor tablet (Roche cat. #4693159001). After clarifying (14,000 rpm for 15 minutes), samples were treated with the indicated concentrations of Pin1-3-DTB at 4° C. for 1 hour. Lysates were then incubated with streptavidin agarose resin (Thermo Scientific, cat. #20349) for 1.5 hour at 4° C. Beads were washed four times with 500 μl of washing buffer (50 mM HEPES (pH 7.5), 10 mM NaCl, 1 mM EDTA, 10% glycerol), then pelleted by centrifugation and dried. The beads were boiled for 5 minutes at 95° C. in 2×LDS+10% β-mercaptoethanol. Proteins of interest were then assessed via Western blotting using the bolt system (Life Technologies).
The indicated cells were plated in 10 cm plates with 2.5 million cells per plate in 6 ml of medium. The day after plating, cells were treated with the indicated concentrations of candidate inhibitor for the indicated time points. The cells were then washed two times with cold phosphate buffer saline (1 ml per 10 cm plate) and collected by scraping with a cell scraper. […]

[1] = tested on: cysteine residues on a proteome-wide scale, PATU-8988T cells; assay: CITe-Id chemoproteomic selectivity experiment; type: cell-based; details: PATU-8988T cells, 100, 500 or 1000 nM for 5 hours
Description: In order to profile the selectivity of Pin1-3, a Covalent Inhibitor Target-site Identification (CITe-Id) experiment [Browne et al., […] 2019, 141, 191-203] was performed, as depicted in FIG. 28.
This chemoproteomic platform enables the identification and quantification of the dose-dependent binding of covalent inhibitors to cysteine residues on a proteome-wide scale. In this competition experiment, live PATU-8988T cells were incubated with Pin1-3 (100, 500 or 1000 nM) for 5 hours, followed by cell lysis and co-incubation with Pin1-3-DTB (2 μM) for 18 hours. Following trypsin digest and avidin enrichment, the DTB-modified peptides were analyzed by shotgun LC-MS/MS.

[2] = tested on: Myc transcriptional output in Mino B cells; assay: RNA sequencing and gene set enrichment; type: cell-based, human; details: 1 μM, 6 hours
Description: Mino cells (acquired from the ATCC) were grown at 37° C. in a 5% CO2 humidified incubator and cultured in RPMI-1640 (Biological Industries), supplemented with 15% fetal bovine serum (Biological Industries) and 1% pen-strep solution (Biological Industries). 11×10^6 cells were incubated with 1 μM Pin1-3 (0.02% DMSO) or with 0.02% DMSO in triplicates for 6 hours. Total RNA was isolated with RNeasy™ kit (Qiagen). RNA libraries were prepared from 2 μg total RNA using SENSE™ mRNA-Seq library prep kit V2 (Lexogen). Total RNA and library quality was analyzed using Qubit™ fluorometric and TapeStation™ analysis (Agilent). Samples were sequenced using NextSeg™ 500/550 High Output Kit v2.5 (Illumina) on NextSeg™ 550.
RNA-seq reads were aligned to the human genome (hg19 assembly) using STAR [Dobin et al., Bioinformatics 2013, 29:15-21] and gene expression was determined using RSEM [L1 & Dewey, BMC Bioinformatics 2011, 12:323] and RefSeq annotations. Differential expression was computed using DESeq2 [Love et al., Genome Biol 2014, 15:550] with default parameters.
In order to test whether Pin1-3 affects Myc transcriptional output, Mino B cells were treated with Pin1-3 (1 μM) for 6 hours (in triplicates) or vehicle (DMSO), followed by a global RNA sequencing analysis to detect differentially expressed genes as the result of this perturbation. […]

Acute toxic model = type: in vivo, mice; details: 10, 20 or 40 mg/kg intraperitoneally every day for two weeks
Description: Toxicity of Pin1-3 was then evaluated in an acute toxic model. Mice were injected with 10, 20 or 40 mg/kg Pin1-3 intraperitoneally every day for two weeks.

PDAC organoids = assay: PDAC organoid growth; type: cell-based, human; details: treated for 7 days
Description: Pancreatic ductal adenocarcinoma (PDAC) cells (derived from a human patient) were treated with Pin1-3 for 3 days. PDAC organoids were treated with Pin1-3 for 7 days (day 7 to day 14).

Compound: CC(C)(C)CN(C(=O)CCl)C1CCS(=O)(=O)C1 (stereo not drawn) [Pin1-3, 2-chloro-N-(sulfolan-3-yl)-N-neopentylacetamide]
- EC50 (MDA-MB-231 cells): > 25 µM
- Concentration of full engagement of Pin1 (Pin1 in IMR32 cells): 1 µM
- Dose-dependent competition among 162 cysteine residues labeled by Pin1-3-DTB [1]: only Pin1 Cys113 exhibited dose-dependent competition
- Myc transcriptional signature (Enrichr, ENCODE TF ChIP-seq sets) [2]: significant downregulation of Myc's transcriptional signature
- Number of genes significantly downregulated [2]: 206 genes
- Adverse effects (Acute toxic model): No adverse effects
- Post-mortem examination (Acute toxic model): no pathologies
- Weight (Acute toxic model): normal
- PDAC organoid growth (PDAC organoids): inhibited PDAC organoid growth in a dose-dependent manner
